Values quoted from earlier work in article PMC6219411 (Drug Design, Development and Therapy, 2018).

Conditions: oral preparation

- mean elimination half-life: 40 to 50 h
- time to maximum plasma concentrations: ≤ 2 h
SMILES: CC(C)(C#N)c1cc(Cn2cncn2)cc(C(C)(C)C#N)c1 [anastrozole, Anastrozole]
